TGI and GI50 data for 17 compounds are collected here from PubChem BioAssay (NCI).

Among the test systems are HCT-116 colon; IGROV1 ovarian; OVCAR-3 ovarian; SW-620 colon; K-562 leukemia; NCI/ADR-RES ovarian; MCF7 breast; HOP-62 NSCLC; EKVX NSCLC; NCI-H226 lung.
Holding throughout (assay): inhibition of tumour cell growth, NCI panel, 48 h

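Compound exposure: 48 hours, 5 concentrations, 96-well plates. GI50 = concentration required for 50% inhibition of growth. The concentration for full growth arrest is given as TGI.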

Take `O=c1c2c3c(sc2nc2n1N=C(c1ccc([N+](=O)[O-])cc1)CS2)CCCC3`: the TGI in the test with HCT-116 colon, in the test with IGROV1 ovarian, with OVCAR-3 ovarian, in the test with SW-620 colon, in the test on K-562 leukemia and with NCI/ADR-RES ovarian was greater than 100 µM in each case. Further, the TGI with MCF7 breast, in the test with HOP-62 NSCLC, with EKVX NSCLC and with NCI-H226 lung was greater than 100 µM throughout.
As for `CCCCS(=O)CC(CO)NC(=O)/C=C/c1c(C)[nH]c(=O)[nH]c1=O` (stereo not given), the TGI in the test with HCT-116 colon is 88.2 µM; in the test with IGROV1 ovarian, 35.4 µM; in the test with OVCAR-3 ovarian it was 15 µM; in the test with SW-620 colon, 152 µM; with K-562 leukemia, 82.1 µM; with NCI/ADR-RES ovarian, 93.2 µM. Also, the TGI was found to be 51 µM with MCF7 breast, 45 µM in the test with HOP-62 NSCLC, 43 µM in the test on EKVX NSCLC and 34 µM in the test on NCI-H226 lung.
Regarding `Nc1ccc(OCCCc2c(-c3ccccc3)nc(N)[nH]c2=O)cc1`, the TGI with HCT-116 colon, with IGROV1 ovarian, in the test with OVCAR-3 ovarian, in the test on SW-620 colon, in the test on K-562 leukemia and in the test with NCI/ADR-RES ovarian was greater than 100 µM each time. For the same compound, the TGI with MCF7 breast, with HOP-62 NSCLC, in the test on EKVX NSCLC and in the test on NCI-H226 lung was greater than 100 µM throughout.
For the compound `O=C1CSC(C(N=Nc2ccc(Cl)cc2)c2nc3ccccc3[nH]2)=N1` (stereo not given), the TGI in the test with HCT-116 colon, in the test with OVCAR-3 ovarian, in the test with SW-620 colon, with K-562 leukemia, in the test with HOP-62 NSCLC and with EKVX NSCLC was greater than 100 µM throughout. In the test on NCI-H226 lung, this compound gave a TGI of 52 µM.
Regarding `CC1=C/C(=C2/N=C(N(C)C)SS2)C(C)=N1`, the TGI in the test with HCT-116 colon, in the test with IGROV1 ovarian, with OVCAR-3 ovarian, with SW-620 colon, in the test on K-562 leukemia and in the test with HOP-62 NSCLC was greater than 100 µM throughout. Also, the TGI with EKVX NSCLC and in the test on NCI-H226 lung was greater than 100 µM each time.
`Cc1cccc(C(=O)O)c1CC1NCCC2c3ccccc3NC12` (stereo not given): the TGI in the test with HCT-116 colon, with IGROV1 ovarian, in the test on OVCAR-3 ovarian, with SW-620 colon, in the test on K-562 leukemia and in the test on NCI/ADR-RES ovarian was greater than 100 µM each time. The TGI in the test with MCF7 breast, in the test on HOP-62 NSCLC, in the test with EKVX NSCLC and with NCI-H226 lung was greater than 100 µM throughout.
`Cc1nc2cccc([N+](=O)[O-])c2n1CCCN(C)C`: the TGI in the test on HCT-116 colon, in the test on IGROV1 ovarian, in the test with OVCAR-3 ovarian, with SW-620 colon, in the test with K-562 leukemia and with NCI/ADR-RES ovarian was greater than 100 µM in each case. Besides, the TGI in the test with MCF7 breast, in the test on HOP-62 NSCLC, with EKVX NSCLC and in the test with NCI-H226 lung was greater than 100 µM throughout.
`C[N+](C)(C)C(C1=CCCC1=O)c1ccccc1` (stereo not given): the TGI is 32.1 µM with HCT-116 colon; greater than 100 µM with IGROV1 ovarian; greater than 100 µM with OVCAR-3 ovarian; 70.4 µM with SW-620 colon; greater than 100 µM with K-562 leukemia; greater than 100 µM in the test on NCI/ADR-RES ovarian. Moreover, the TGI with MCF7 breast was 56.7 µM; in the test with HOP-62 NSCLC it was 80.2 µM; in the test on EKVX NSCLC it was greater than 100 µM; in the test on NCI-H226 lung, greater than 100 µM.
With `CNc1nc2c(C)ccc3[nH]c(N(C)C)nc3c-2n1`, the TGI with HCT-116 colon is greater than 100 µM; with IGROV1 ovarian, greater than 100 µM; in the test with OVCAR-3 ovarian it was greater than 100 µM; in the test with SW-620 colon it was greater than 100 µM; with K-562 leukemia it was 45 µM; with NCI/ADR-RES ovarian, greater than 100 µM. In addition, the TGI in the test on MCF7 breast, with HOP-62 NSCLC, in the test on EKVX NSCLC and in the test with NCI-H226 lung was greater than 100 µM throughout.
Regarding `CN=C(NC)N(C)c1nc(=[N+](C)C)ss1`, the TGI in the test with HCT-116 colon, in the test with IGROV1 ovarian, with OVCAR-3 ovarian, in the test on SW-620 colon, in the test with K-562 leukemia and in the test with HOP-62 NSCLC was greater than 100 µM throughout. Moreover, the TGI with EKVX NSCLC and in the test with NCI-H226 lung was greater than 100 µM each time.
As for `Cc1cc2c(C(C)C)c(O)c(O)c(C=Nc3ccccc3)c2c(O)c1-c1c(C)cc2c(C(C)C)c(O)c(O)c(C=Nc3ccccc3)c2c1O`, the TGI in the test with HCT-116 colon, with IGROV1 ovarian, in the test with OVCAR-3 ovarian, with SW-620 colon, in the test with K-562 leukemia and with HOP-62 NSCLC was greater than 100 µM in each case. Moreover, the TGI in the test on EKVX NSCLC and in the test with NCI-H226 lung was greater than 100 µM in each case.
For `O=C1CCCN1CCCN=c1cc2n(-c3ccc(Cl)cc3)c3ccccc3nc-2cc1Nc1ccc(Cl)cc1`, the TGI in the test on HCT-116 colon turned out to be 25.3 µM; with IGROV1 ovarian, 24.9 µM; in the test on OVCAR-3 ovarian it was 6.18 µM; with SW-620 colon it was 68.5 µM; in the test on K-562 leukemia it was 30 µM; in the test on NCI/ADR-RES ovarian it was 42.1 µM. Also, the TGI in the test on MCF7 breast was found to be 25.8 µM; in the test on HOP-62 NSCLC, 29.5 µM; in the test on EKVX NSCLC it was 28.1 µM; in the test on NCI-H226 lung, 32.3 µM.
Regarding `CCc1c(C)c2ccc(OCC(=O)N=Nc3c(O)[nH]c4ccccc34)c(C)c2oc1=O`, the GI50 in the test with K-562 leukemia was 1.19 µM; in the test with NCI/ADR-RES ovarian, greater than 33.3 µM; with MCF7 breast it was 0.992 µM; in the test on EKVX NSCLC, greater than 33.3 µM; in the test with NCI-H226 lung, greater than 33.3 µM. For the same compound, the TGI with K-562 leukemia, with NCI/ADR-RES ovarian, in the test with MCF7 breast, in the test with EKVX NSCLC and in the test with NCI-H226 lung was greater than 33.3 µM in each case.
With `COC(=O)C1C(O)C(C)C(O)OC1C(C)C(O)C(C)/C=C\C=C(/C)C(=O)Nc1c(C)c(OC(C)=O)c2c(c1O)C(=O)C(C)=C1OCOC(/C(C)=C/C(C)=O)=C12` (stereo not given), the TGI in the test on HCT-116 colon was 19.9 µM; in the test on IGROV1 ovarian it was 26.5 µM; in the test with OVCAR-3 ovarian, 20.5 µM; in the test with SW-620 colon, 20.4 µM; in the test with K-562 leukemia, 51.1 µM; with NCI/ADR-RES ovarian, 30.5 µM. The TGI in the test on MCF7 breast was determined as 26.8 µM; in the test on HOP-62 NSCLC it was 23.5 µM; in the test on EKVX NSCLC, 20.5 µM; with NCI-H226 lung it was 23.4 µM.
For `CC(C)[C@](O)(C(=O)OCC1=CCN2CC[C@@H](O)[C@@H]12)[C@H](C)O`, the TGI is greater than 375 µM with HCT-116 colon; greater than 375 µM in the test with IGROV1 ovarian; greater than 375 µM with OVCAR-3 ovarian; greater than 237 µM in the test with SW-620 colon; greater than 375 µM in the test with K-562 leukemia; greater than 375 µM with NCI/ADR-RES ovarian. The TGI in the test with MCF7 breast, with HOP-62 NSCLC, in the test on EKVX NSCLC and in the test on NCI-H226 lung was greater than 375 µM in each case.
For the compound `C[C@]12CCc3sc(-c4cccc(F)c4)nc3C1=CC[C@@H]1[C@@H]2CC[C@]2(C)C(=O)CC[C@@H]12`, the GI50 in the test on HCT-116 colon was 1.73 µM; with IGROV1 ovarian, 2.09 µM; with OVCAR-3 ovarian, 1.92 µM; in the test on K-562 leukemia, 1.82 µM; in the test with NCI/ADR-RES ovarian, 3.41 µM; in the test with MCF7 breast, 1.78 µM. For the same compound, the GI50 is 3.1 µM with HOP-62 NSCLC and 4.79 µM in the test on EKVX NSCLC. The TGI was determined as 3.56 µM in the test with HCT-116 colon; 4.88 µM in the test on IGROV1 ovarian; 3.79 µM with OVCAR-3 ovarian; 9.08 µM with K-562 leukemia; 57.5 µM in the test on NCI/ADR-RES ovarian; 4.26 µM in the test with MCF7 breast. Further, the TGI was 11.8 µM with HOP-62 NSCLC and 87.2 µM in the test with EKVX NSCLC.
Take `CCN(CC)CCNC(=O)c1nn(-c2ccc(Cl)cc2)c2c1CCc1cc(OC)ccc1-2`: the TGI was 13.3 µM with HCT-116 colon; 26.6 µM in the test with IGROV1 ovarian; 20.6 µM in the test on OVCAR-3 ovarian; 7.59 µM with SW-620 colon; 11.1 µM with K-562 leukemia; 29.2 µM in the test with HOP-62 NSCLC. The values for the TGI in the test on EKVX NSCLC and in the test on NCI-H226 lung were 23.4 µM and 24.2 µM, respectively.
